Test results: ChEMBL document CHEMBL3351564, “Discovery of a phosphodiesterase 9A inhibitor as a potential hypoglycemic agent” (J Med Chem, 2014)
Converted amounts (≈) assume the structure as drawn.

Key:
[1] = molecular target: High affinity cGMP-specific 3',5'-cyclic phosphodiesterase 9A (Homo sapiens, UniProt O76083); experiment: Inhibition of PDE9A2 catalytic domain (unknown origin) using [3H]-cGMP/[3H]-cAMP as substrate after 15 mins by liquid scintillation counting analysis
[2] = molecular target: High affinity 3',5'-cyclic-AMP phosphodiesterase 7A (Homo sapiens, UniProt Q13946); experiment: Inhibition of PDE7A1 catalytic domain (unknown origin) using [3H]-cGMP/[3H]-cAMP as substrate after 15 mins by liquid scintillation counting analysis
Sequence of High affinity 3',5'-cyclic-AMP phosphodiesterase 7A (Q13946 whole entry, the tested form may be a part): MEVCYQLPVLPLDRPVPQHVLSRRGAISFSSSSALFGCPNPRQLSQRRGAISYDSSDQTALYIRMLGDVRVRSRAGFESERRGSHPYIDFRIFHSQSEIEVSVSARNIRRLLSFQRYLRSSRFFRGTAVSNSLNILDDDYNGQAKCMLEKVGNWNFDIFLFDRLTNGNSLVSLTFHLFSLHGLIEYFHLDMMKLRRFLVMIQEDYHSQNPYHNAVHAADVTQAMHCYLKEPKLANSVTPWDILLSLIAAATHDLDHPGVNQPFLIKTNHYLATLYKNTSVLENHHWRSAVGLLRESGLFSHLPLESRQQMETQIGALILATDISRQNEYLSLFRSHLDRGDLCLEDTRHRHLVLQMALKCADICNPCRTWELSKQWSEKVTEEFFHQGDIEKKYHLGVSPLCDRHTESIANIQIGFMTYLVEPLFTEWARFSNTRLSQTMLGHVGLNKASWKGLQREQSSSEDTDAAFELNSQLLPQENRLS

[3] = molecular target: High affinity cAMP-specific and IBMX-insensitive 3',5'-cyclic phosphodiesterase 8A (Homo sapiens, UniProt O60658); experiment: Inhibition of PDE8A1 catalytic domain (unknown origin) using [3H]-cGMP/[3H]-cAMP as substrate after 15 mins by liquid scintillation counting analysis
Sequence of High affinity cAMP-specific and IBMX-insensitive 3',5'-cyclic phosphodiesterase 8A (O60658 whole entry, the tested form may be a part): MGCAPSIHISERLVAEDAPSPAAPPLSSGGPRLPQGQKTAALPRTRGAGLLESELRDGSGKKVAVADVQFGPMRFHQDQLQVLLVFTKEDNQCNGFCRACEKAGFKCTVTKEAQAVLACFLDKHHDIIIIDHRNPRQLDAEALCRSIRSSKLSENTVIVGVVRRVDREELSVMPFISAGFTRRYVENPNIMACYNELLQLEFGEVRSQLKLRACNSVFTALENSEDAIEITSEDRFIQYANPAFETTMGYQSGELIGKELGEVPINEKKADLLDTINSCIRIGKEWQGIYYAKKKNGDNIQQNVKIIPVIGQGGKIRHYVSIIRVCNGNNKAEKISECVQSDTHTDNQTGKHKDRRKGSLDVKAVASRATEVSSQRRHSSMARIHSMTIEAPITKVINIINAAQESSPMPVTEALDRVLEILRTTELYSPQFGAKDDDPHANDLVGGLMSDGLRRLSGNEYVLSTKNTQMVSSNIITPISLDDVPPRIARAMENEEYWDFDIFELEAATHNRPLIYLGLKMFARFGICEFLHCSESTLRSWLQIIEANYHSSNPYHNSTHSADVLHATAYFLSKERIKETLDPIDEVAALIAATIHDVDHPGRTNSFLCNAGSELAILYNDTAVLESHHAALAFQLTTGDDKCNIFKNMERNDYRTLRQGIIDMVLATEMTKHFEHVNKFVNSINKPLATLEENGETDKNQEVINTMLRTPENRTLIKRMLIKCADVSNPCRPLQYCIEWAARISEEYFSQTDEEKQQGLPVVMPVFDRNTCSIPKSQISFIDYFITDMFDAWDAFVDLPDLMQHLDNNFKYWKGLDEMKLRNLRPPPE

Liver = experiment: Half life in CD-1 mouse liver microsomes at […] incubated for 5 mins prior to NADPH addition measured after 30 mins by LC/MS/MS analysis; assay type: ADME; conditions: 0.5 h
[4] = Apparent clearance in CD-1 mouse liver microsomes at […] incubated for 5 mins prior to NADPH addition measured after 30 mins by LC/MS/MS analysis; assay type: ADME; conditions: read-out: CL(app)
[5] = Hepatic clearance in CD-1 mouse liver microsomes at […] incubated for 5 mins prior to NADPH addition measured after 30 mins by LC/MS/MS analysis; assay type: ADME
in vitro = conditions: CD-1, mouse, liver microsomes
[6] = molecular target: cGMP-dependent 3',5'-cyclic phosphodiesterase (Homo sapiens, UniProt O00408); experiment: Inhibition of PDE2A3 catalytic domain (unknown origin) using [3H]-cGMP/[3H]-cAMP as substrate after 15 mins by liquid scintillation counting analysis
Sequence of cGMP-dependent 3',5'-cyclic phosphodiesterase (O00408 whole entry, the tested form may be a part): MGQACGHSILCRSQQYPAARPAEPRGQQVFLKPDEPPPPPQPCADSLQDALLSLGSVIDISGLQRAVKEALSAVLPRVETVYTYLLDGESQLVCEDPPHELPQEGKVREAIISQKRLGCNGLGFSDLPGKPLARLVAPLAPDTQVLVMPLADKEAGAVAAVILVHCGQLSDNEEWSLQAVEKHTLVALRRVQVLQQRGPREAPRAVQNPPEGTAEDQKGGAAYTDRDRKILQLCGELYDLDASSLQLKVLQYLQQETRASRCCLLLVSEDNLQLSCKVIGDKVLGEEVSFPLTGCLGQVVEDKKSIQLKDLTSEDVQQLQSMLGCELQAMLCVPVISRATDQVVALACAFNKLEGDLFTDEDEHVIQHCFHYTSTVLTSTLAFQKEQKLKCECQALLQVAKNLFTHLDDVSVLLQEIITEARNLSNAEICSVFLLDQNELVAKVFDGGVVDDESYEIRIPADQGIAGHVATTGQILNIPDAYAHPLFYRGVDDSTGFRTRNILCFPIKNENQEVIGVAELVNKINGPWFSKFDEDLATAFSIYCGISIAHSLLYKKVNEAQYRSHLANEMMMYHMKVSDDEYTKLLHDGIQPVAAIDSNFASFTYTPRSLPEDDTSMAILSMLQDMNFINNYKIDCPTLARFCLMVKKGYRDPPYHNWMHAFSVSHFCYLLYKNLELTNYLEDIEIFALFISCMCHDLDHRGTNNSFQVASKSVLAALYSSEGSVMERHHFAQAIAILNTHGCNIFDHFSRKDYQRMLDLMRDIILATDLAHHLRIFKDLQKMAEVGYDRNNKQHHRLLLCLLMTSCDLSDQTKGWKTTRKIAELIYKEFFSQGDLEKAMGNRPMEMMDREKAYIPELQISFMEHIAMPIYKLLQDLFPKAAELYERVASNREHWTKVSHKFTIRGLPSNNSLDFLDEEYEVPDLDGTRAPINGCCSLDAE

[7] = molecular target: cGMP-inhibited 3',5'-cyclic phosphodiesterase 3A (Homo sapiens, UniProt Q14432); experiment: Inhibition of PDE3A catalytic domain (unknown origin) using [3H]-cGMP/[3H]-cAMP as substrate after 15 mins by liquid scintillation counting analysis
Sequence of cGMP-inhibited 3',5'-cyclic phosphodiesterase 3A (Q14432 whole entry, the tested form may be a part): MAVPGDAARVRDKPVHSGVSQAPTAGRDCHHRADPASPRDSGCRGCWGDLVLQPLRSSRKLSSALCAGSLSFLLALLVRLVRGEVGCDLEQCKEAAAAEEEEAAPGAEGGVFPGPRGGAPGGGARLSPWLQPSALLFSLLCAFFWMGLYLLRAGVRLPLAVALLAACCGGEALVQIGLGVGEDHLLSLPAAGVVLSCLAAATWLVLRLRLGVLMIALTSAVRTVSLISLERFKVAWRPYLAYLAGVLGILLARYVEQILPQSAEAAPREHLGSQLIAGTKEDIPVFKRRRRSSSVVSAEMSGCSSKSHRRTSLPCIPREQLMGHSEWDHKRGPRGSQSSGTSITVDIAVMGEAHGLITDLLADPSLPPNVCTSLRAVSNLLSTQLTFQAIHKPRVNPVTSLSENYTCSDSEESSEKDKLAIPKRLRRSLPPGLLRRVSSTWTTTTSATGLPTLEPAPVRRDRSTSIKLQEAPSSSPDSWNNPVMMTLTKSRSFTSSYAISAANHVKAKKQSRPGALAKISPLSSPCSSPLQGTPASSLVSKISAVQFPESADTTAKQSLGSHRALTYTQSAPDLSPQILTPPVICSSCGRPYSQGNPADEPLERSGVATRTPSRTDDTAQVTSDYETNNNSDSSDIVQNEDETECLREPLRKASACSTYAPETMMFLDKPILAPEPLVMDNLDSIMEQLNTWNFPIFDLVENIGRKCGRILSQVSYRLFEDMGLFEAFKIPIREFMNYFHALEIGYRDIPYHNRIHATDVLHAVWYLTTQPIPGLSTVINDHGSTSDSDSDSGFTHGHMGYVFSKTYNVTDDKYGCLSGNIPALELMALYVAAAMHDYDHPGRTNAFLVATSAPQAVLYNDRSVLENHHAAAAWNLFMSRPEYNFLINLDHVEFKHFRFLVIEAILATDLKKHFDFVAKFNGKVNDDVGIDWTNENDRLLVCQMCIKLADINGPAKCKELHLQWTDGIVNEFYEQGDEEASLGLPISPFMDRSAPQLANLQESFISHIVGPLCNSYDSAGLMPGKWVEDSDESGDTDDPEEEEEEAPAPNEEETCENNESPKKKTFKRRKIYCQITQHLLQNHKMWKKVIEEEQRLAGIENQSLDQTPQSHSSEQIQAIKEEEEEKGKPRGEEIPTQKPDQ

[8] = Plasma protein binding in human at 1 to 5 uM after 4 hrs by LC/MS/MS analysis; assay type: ADME, cell-free; conditions: read-out: PPB
[9] = Solubility of the compound in simulated gastric fluid at pH 1.4 after 24 to 48 hrs by HPLC analysis; assay type: ADME; conditions: simulated gi fluid
[10] = Solubility of the compound in simulated intestinal fluid at pH 6.8 after 24 to 48 hrs by HPLC analysis; assay type: ADME; conditions: simulated gi fluid
HepG2 [11] = experiment: Hypoglycemic effect in human HepG2 cells assessed as reduction of 8-Br-cAMP/dexamethasone-induced G-6-Pase mRNA expression at 100 nM (reference value: 233%); assay type: functional; design: scale not given: the % may be the effect or the level left
HepG2 [12] = experiment: Hypoglycemic effect in human HepG2 cells assessed as reduction of 8-Br-cAMP/dexamethasone-induced G-6-Pase mRNA expression at 10 nM (reference value: 233%); assay type: functional; design: scale not given: the % may be the effect or the level left
HepG2 [13] = experiment: Hypoglycemic effect in human HepG2 cells assessed as reduction of 8-Br-cAMP/dexamethasone-induced PEPCK mRNA expression at 1000 nM (reference value: 184%); assay type: functional; design: scale not given: the % may be the effect or the level left
HepG2 [14] = experiment: Hypoglycemic effect in human HepG2 cells assessed as reduction of 8-Br-cAMP/dexamethasone-induced PEPCK mRNA expression at 100 nM (reference value: 184%); assay type: functional; design: scale not given: the % may be the effect or the level left
HepG2 [15] = experiment: Hypoglycemic effect in human HepG2 cells assessed as reduction of 8-Br-cAMP/dexamethasone-induced PEPCK mRNA expression at 10 nM (reference value: 184%); assay type: functional; design: scale not given: the % may be the effect or the level left
Mus musculus [16] = experiment: Acute toxicity in KM mouse assessed as poisoned symptom at 1 to 1200 mg/kg, po measured up to 2 weeks; assay type: organism-based; design: dose 1-1200 mg/kg, route oral; conditions: in vivo, 336 h
Mus musculus [17] = experiment: Acute toxicity in KM mouse assessed as mortality at 1 to 1200 mg/kg, po measured up to 2 weeks; assay type: organism-based; design: dose 1-1200 mg/kg, route oral; conditions: in vivo, 336 h
Mus musculus [18] = experiment: Acute toxicity in KM mouse assessed as abnormal behaviour at 1 to 1200 mg/kg, po measured up to 2 weeks; assay type: organism-based; design: dose 1-1200 mg/kg, route oral; conditions: in vivo, 336 h
Mus musculus [19] = experiment: Acute toxicity in KM mouse assessed as change in water/food consumption at 1 to 1200 mg/kg, po measured up to 2 weeks; assay type: organism-based; design: dose 1-1200 mg/kg, route oral; conditions: in vivo, 336 h
Mus musculus [20] = experiment: Acute toxicity in KM mouse assessed as change in body weight at 1 to 1200 mg/kg, po measured up to 2 weeks; assay type: organism-based; design: dose 1-1200 mg/kg, route oral; conditions: in vivo, 336 h
HepG2 [21] = experiment: Hypoglycemic effect in human HepG2 cells assessed as reduction of 8-Br-cAMP/dexamethasone-induced G-6-Pase mRNA expression at 1000 nM (reference value: 233%); assay type: functional; design: scale not given: the % may be the effect or the level left

Sequence of High affinity cGMP-specific 3',5'-cyclic phosphodiesterase 9A (O76083 whole entry, the tested form may be a part): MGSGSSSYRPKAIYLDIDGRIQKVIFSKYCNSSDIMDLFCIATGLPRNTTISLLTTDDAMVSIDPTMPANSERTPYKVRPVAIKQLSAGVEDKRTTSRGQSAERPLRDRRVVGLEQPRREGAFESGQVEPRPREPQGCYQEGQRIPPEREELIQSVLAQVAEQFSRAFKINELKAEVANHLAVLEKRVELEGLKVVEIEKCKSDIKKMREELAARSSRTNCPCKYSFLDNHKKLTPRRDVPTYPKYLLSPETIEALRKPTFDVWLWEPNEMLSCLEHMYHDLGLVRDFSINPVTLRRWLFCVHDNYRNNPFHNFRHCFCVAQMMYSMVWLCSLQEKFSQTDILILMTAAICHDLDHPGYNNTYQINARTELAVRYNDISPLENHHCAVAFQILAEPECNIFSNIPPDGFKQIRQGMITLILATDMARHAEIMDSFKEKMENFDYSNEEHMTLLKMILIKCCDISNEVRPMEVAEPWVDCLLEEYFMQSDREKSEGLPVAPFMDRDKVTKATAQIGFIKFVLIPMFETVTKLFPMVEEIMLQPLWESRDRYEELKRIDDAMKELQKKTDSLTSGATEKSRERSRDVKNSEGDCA

Compound | IC50 [2] [µM] | IC50 [3] [µM] | t1/2 (Liver) [min] | CLint scaled at […] [4] [mL/min/kg] | CLhep predicted at […] [5] [mL/min/kg] | IC50 [6] [µM] | fraction unbound at 4 h, up to 5 µM [8] | solubility [9] [µg/mL] | solubility [10] [µg/mL] | also measured
COc1ccc(NC(=O)[C@@H](C)Nc2nc3c(cnn3-c3ccccc3Cl)c(=O)[nH]2)cc1 | 51.2 | > 100 |  |  |  |  |  |  |  | IC50 [1]: 0.0064 µM
C[C@]12CC[C@H]3[C@@H](CCC4=CC(=O)CC[C@@]43C)[C@@H]1CC[C@@H]2O [TESTOSTERONE] |  |  | 2 | 2730 | 87.1 |  |  |  |  | hepatic extraction ratio at 0.5 h, […] (in vitro): 0.968
COc1ccc(NC(=O)[C@H](C)Nc2nc3c(cnn3-c3ccccc3Cl)c(=O)[nH]2)cc1 | > 100 | > 100 |  |  |  | > 50 | < 0.057 | 8 (≈ 18.2 µM) | 13 (≈ 29.6 µM) | IC50 [7]: > 50 µM
CC(=O)CC(c1ccccc1)c1c(O)c2ccccc2oc1=O (stereo not drawn) [WARFARIN] |  |  |  | 30.9 | 23 |  |  |  |  | 
COc1ccc(NC(=O)[C@H](C)Nc2nc3c(cnn3C3CCCC3)c(=O)[nH]2)cc1 |  | > 100 |  |  |  |  | < 0.057 | 23 (≈ 58 µM) | 31 (≈ 78.2 µM) | 
COc1ccc(NC(=O)[C@@H](C)Nc2nc3c(cnn3C3CCCC3)c(=O)[nH]2)cc1 |  | > 100 | 22.3 | 244 | 65.8 | 13 | < 0.057 | 26 (≈ 65.6 µM) |  | Activity (HepG2 [11]): 93.2%; Activity (HepG2 [12]): 98.4%; Activity (HepG2 [13]): 105%; Activity (HepG2 [14]): 96.5%; Activity (HepG2 [15]): 108%; Activity (Mus musculus [16]): Non-toxic; Activity (Mus musculus [17]): Non-toxic; Activity (Mus musculus [18]): Non-toxic; Activity (Mus musculus [19]): Non-toxic; Activity (Mus musculus [20]): Non-toxic; Activity (HepG2 [21]): 97.2%
